Test results from patent US20030220280A1, “Schwann cell bridge implants and phosphodiesterase inhibitors to stimulate CNS nerve regeneration” (priority 2002, published 2003).

How the values were obtained:
Format in all cases: in vivo, rat
[1] = tested on: rats with a moderate contusion injury at thoracic cord segment 8; experiment: Gridwalk test for fine locomotor performance after moderate contusion injury; settings: FIG. 4; 8 weeks after moderate contusion; 1 m gridwalk, maximum 20 errors
Source text: FIG. 4 compares footfall errors in a gridwalking analysis 8 weeks after a moderate contusion injury by weight drop (NYU impactor, 12.5 mm height) followed by db-cAMP administration plus Schwann cell transplantation with or without rolipram. Each treatment used 4 injection sites, 2-3 mm rostral and caudal to the injury site and on either side of the midline. A. Non-injured control; B. 1 week post-injury 2×10^6 Schwann cells injected into the injury site with saline; C. 1 week post-injury 2×10^6 Schwann cells injected with 4×0.2 μL×1 mM db-cAMP; D. 1 week post-injury 2×10^6 Schwann cells with 4×0.2 μL×50 mM db-cAMP; E. 1 day post-injury 2×10^6 Schwann cells with 4×0.2 μL×50 mM db-cAMP; F. animals received rolipram by minipump starting within 30 minutes of the injury (0.07 μmol/kg/hr for 2 weeks after injury) and 1 week later 2×10^6 Schwann cells with 4×0.2 μL×50 mM db-cAMP.
(§1) Adult rats (Fischer rats, Charles River Laboratories, 3-5 months old) were injured in the thoracic level of the spinal cord with the NYU weight drop device (NYU impactor) as described in Gruner (1992), and rolipram (0.07 μmol/kg/hr) was administered for two weeks. […]
The number of footfall errors that the animal makes is recorded (maximum is 20, 1 per leg per space between each bar) with higher scores indicating a poor ability to perform the tasks.

[2] = tested on: rats with a moderate contusion injury at thoracic cord segment 8; experiment: Footprint analysis after moderate contusion injury; settings: FIGS. 5-7; 8 weeks after moderate contusion; conditioned locomotion
Procedure: FIG. 5 compares stride length in a footprint analysis conducted 8 weeks after a moderate contusion injury by weight drop followed by db-cAMP administration plus Schwann cell transplantation with or without rolipram. Each treatment used 4 injection sites, 2-3 mm rostral and caudal to the injury site and on either side of the midline. A. Non-injured control; B. 1 week post-injury 2×10^6 Schwann cells injected into the injury site with saline; C. […]
FIGS. 5, 6 and 7 illustrate the locomotor patterns of injured rats that received various treatments, tested by inking both the fore- and hind-paws (different colors), allowing them to walk 1 m on an enclosed, flat runway and then analyzing the footprints. Recorded parameters from 8 consecutive steps included the animal's stride length (measured between the central pads of two consecutive prints on each side of the animal), base of support (determined by measuring the distance between the central pads of the hindpaws), and hindfoot outward rotation. […]

[3] = tested on: rats with a complete spinal cord transection at thoracic cord segment 8; experiment: BBB test of hindlimb locomotion after complete spinal cord transection with Schwann cell bridge; settings: rolipram by minipump 0.07 μmol/kg/hr for two weeks, assessed weekly
Source text: Schwann cells were purified in culture from adult rat sciatic nerve (according to the methods described by Morrissey, Kleitman and Bunge (1991)). The purity of the Schwann cells used for transplantation was between 95 and 98%.
For Schwann cell bridges, cells were suspended in matrigel/DMEM (30:70) and drawn into 3-8 mm long polymer guidance channels at a density of 120×10^6 cells/ml, as described by Xu et al. (1997). During implantation into adult rats (Fischer rats, Charles River Laboratories, 3-5 months old), each cut stump of the severed spinal cord was inserted 1 mm into the channel. Sometimes the Schwann cell cable is transplanted without the guidance channel. Either method, with or without the channel, is readily accomplished by persons who have performed this procedure a number of times and so have gained adequate expertise to accomplish this.
Spinal cords of adult rats were completely transected by surgery at the T8 cord level and the next caudal segment was removed. At the time of transection, a Schwann cell bridge was implanted at the injury site, 50 mM db-cAMP was injected (0.2 μl) or infused (5 μl) into the proximal and distal stump of the lesion and rolipram was delivered subcutaneously via minipump at 0.07 μmol/kg/hr for two weeks. […] Animals were assessed on a weekly basis for hindlimb locomotion, a measure of motor recovery, using the BBB test. […]

[4] = tested on: rats with a moderate contusion injury at thoracic cord segment 8; experiment: BBB test of hindlimb locomotion after moderate contusion injury with Schwann cell injection; settings: FIG. 3, tested weekly
Procedure: FIG. 3 compares the effects over time of db-cAMP injection and rolipram on BBB scores of rats receiving Schwann cell transplantation after receiving moderate contusion injury to the spinal cord by weight drop (NYU impactor, 12.5 mm height). Each treatment used 4 injection sites, 2-3 mm rostral and caudal to the injury site and on either side of the midline. Diamonds: 2×10^6 Schwann cells were injected into the injury site with saline injection one week post-injury; squares: 2×10^6 Schwann cells with 0.2 μL×1 mM db-cAMP (four injections) one week postinjury; triangles: 2×10^6 Schwann cells with 0.2 μL×50 mM db-cAMP (four injections) one week post-injury; crosses: 2×10^6 Schwann cells with 0.2 μL×50 mM […] (four injections) one day post-injury; circles: animals received rolipram by minipump starting within 30 minutes of the injury (0.07 μmol/kg/hr for 2 weeks after injury) and 1 week later Schwann cells with 0.2 μL×50 mM db-cAMP (four injections).
as §1

`CCCC(=O)Nc1ncnc2c1ncn2[C@@H]1O[C@@H]2COP(=O)(O)O[C@H]2[C@H]1OC(=O)CCC` [db-cAMP, dibutyryl-cAMP] was tested, and the “ability to perform fine motor tasks (footfall errors on gridwalk)” value [1] was “exhibited many more errors”, the “outward foot rotation in footprint analysis” value [2] was “did not exhibit a similar level of recovery” and the “trunk stability (base of support) in footprint analysis” value [2] was “did not exhibit a similar level of recovery”. For the same molecule, the “hindlimb locomotion (BBB test)” value ([3]; FIG. 1, db-cAMP injected (0.2 μl) into both stumps) was “not observed”, the “hindlimb locomotion (BBB test)” value ([3]; FIG. 2, db-cAMP infused (5 μl) into both stumps) was “not observed” and the “hindlimb locomotion (BBB test)” value [4] was “not observed”.
